From patent US9067894B1, “Compound, composition, and method of activating GIRK potassium channel and use of same for treating conditions of interest” (Vanderbilt University, priority 2013, dated 2015) come the findings set out here.

Data set [1] in a line: Ascending dose study in mice. Conditions: mice, 10, 30, 60 mg/kg intraperitoneal. Format: in vivo, mouse. As for the experimental part: To begin to assess […] pharmacodynamics properties, an ascending dose study (10, 30, 60 mg/kg, intraperitoneal injection) was performed in mice.
In data set [2] the target is T1, Adrenergic β2 (Homo sapiens, UniProt P07550).
T1 construct: Ricerca
The experiment in a line: Radioligand displacement (Ricerca). Type of data set: binding. A general note: Loss of bound radioactivity is the signal in a displacement assay; it reports binding, not function.

For data set [3], the target named is T2, Glucocorticoid (Homo sapiens, UniProt P04150).
T2 construct: Ricerca
Nature of the data set: Radioligand displacement (Ricerca). Type of data set: binding.

Data set [4] has as its target T3, Tachykinin NK1 (Homo sapiens, UniProt P25103).
T3 construct: Ricerca (contract panel)
Nature of the data set: Radioligand displacement (Ricerca). Type of data set: binding.

The target in data set [5] is T4, Adrenergic α1D (Homo sapiens, UniProt P25100).
T4 construct: Ricerca (contract assay)
Nature of the data set: Radioligand displacement (Ricerca). Type of data set: binding.

Data set [6] addresses T5, GIRK1/2 (Homo sapiens, UniProt P48051+P48549).
T5 sequence (P48549 1-501): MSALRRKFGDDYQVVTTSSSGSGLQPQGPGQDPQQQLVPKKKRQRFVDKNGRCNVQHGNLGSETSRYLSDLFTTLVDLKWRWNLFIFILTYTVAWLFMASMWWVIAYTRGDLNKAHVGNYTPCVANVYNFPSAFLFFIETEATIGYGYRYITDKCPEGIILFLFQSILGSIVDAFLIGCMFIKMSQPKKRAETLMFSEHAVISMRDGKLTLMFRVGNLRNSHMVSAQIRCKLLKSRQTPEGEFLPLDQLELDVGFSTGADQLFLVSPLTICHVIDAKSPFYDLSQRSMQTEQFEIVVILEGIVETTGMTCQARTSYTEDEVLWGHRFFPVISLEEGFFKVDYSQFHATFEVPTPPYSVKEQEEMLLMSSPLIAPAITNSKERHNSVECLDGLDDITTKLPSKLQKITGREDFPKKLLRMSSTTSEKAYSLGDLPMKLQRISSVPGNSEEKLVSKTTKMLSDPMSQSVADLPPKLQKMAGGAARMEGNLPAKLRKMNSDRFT
T5 sequence (P48051 1-423): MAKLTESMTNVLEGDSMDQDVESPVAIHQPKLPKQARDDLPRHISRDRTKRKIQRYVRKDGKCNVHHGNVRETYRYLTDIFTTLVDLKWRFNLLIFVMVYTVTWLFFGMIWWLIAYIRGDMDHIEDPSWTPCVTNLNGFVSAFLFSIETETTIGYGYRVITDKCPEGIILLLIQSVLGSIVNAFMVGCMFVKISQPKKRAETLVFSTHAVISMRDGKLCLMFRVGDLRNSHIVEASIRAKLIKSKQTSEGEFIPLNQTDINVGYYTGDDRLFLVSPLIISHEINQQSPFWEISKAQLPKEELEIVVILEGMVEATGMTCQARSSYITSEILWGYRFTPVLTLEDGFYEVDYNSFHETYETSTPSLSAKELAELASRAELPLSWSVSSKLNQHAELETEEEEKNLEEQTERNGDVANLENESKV
The experiment in a line: Whole-cell voltage-clamp, GIRK1/2-expressing HEK-293 cells. The arrangement: host or cells: HEK-293. Format: cell-based. From the text: Cell Line Construction and Cell Culture. HEK-293 cells co-expressing human GIRK1/2 and rat mGlu8 were generated as previously described (Niswender et al., 2008). A HEK-293 cell line (ATCC, Manassas, Va.) expressing human GIRK1 and human GIRK2 was constructed by transfecting HEK-293 cells with GIRK1 and GIRK2 (Origene, Rockville, Md.) cloned into the pBudCE4.1 vector (Life Technologies, Carlsbad, Calif.) using FuGene 6 (Promega, Madison, Wis.) transfection reagent. Unless otherwise noted, other ion channel-expressing cells were prepared by transfecting HEK-293 cells with individual or combinations of subunits: GIRK1, pCMV6-A-BSD; GIRK2, pCMV6-A-puro; GIRK3, pCMV6-A-hygro; GIRK4, pCMV6-A-AC; Kv7.4, pIRESneo3. The Kir2.1 and hERG-expressing cell lines were made by transfecting T-REx-293 cells (Life Technologies, Carlsbad, Calif.) with Kir2.1 and Kv11.1, respectively, cloned into pcDNA5TO. Monoclonal cell lines were produced by limiting-dilution cloning of antibiotic-resistant cells and functional selection using the thallium flux assay described below. Unless otherwise noted, cells were maintained in Minimal Essential Medium, Alpha Medium (Mediatech, Manassas, Va.) supplemented with 10% fetal bovine serum (Sigma-Aldrich, Saint Louis, Mo.) and GlutaGro (Mediatech, Manassas, Va.), referred to henceforth as cell culture medium. […]
A single-cell suspension of HEK-293 cells stably transfected with the appropriate ion channels were plated into TC-treated 35 mm polystyrene dishes at ˜15% confluence and incubated overnight in a 5% CO2 cell culture incubator at 37° C. […] Whole cell currents were recorded in 20K extracellular solution at −70 mV using a Pico 1 amplifier (Tecella, Foothill Ranch, Calif.) controlled by WINWCP 4.X (University of Strathclyde, Glasgow, Scotland, UK). […] One day after transfection, cells were plate into 35 mm polystyrene dishes, incubated and recorded as described above. […]
Voltage-clamp data were analyzed by converting current amplitudes to current density by dividing by each cell's membrane capacitance estimated from capacitance compensation. […]

For data set [7], the system named is L-Type Ca channel (dihydropyridine). Nature of the data set: Radioligand displacement (Ricerca). Type of data set: binding, rat. Conditions: 10 μM.
For data set [8], the target named is T6, Interleukin IL-1 (Mus musculus, UniProt P13504).
T6 construct: Ricerca (contract laboratory that ran the panel)
Nature of the data set: Radioligand displacement (Ricerca). Format: binding.

T3 sequence (P25103 whole entry): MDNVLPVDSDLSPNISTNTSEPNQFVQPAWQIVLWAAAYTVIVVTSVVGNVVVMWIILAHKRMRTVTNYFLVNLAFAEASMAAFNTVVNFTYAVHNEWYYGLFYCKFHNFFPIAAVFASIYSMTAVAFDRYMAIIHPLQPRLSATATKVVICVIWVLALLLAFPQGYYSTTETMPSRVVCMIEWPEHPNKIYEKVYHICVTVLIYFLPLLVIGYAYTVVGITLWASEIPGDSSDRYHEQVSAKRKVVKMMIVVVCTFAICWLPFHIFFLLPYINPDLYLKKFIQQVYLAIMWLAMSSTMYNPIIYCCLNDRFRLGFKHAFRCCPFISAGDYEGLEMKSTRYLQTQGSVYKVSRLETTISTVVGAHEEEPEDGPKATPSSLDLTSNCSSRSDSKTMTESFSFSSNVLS
T1 sequence (P07550 whole entry): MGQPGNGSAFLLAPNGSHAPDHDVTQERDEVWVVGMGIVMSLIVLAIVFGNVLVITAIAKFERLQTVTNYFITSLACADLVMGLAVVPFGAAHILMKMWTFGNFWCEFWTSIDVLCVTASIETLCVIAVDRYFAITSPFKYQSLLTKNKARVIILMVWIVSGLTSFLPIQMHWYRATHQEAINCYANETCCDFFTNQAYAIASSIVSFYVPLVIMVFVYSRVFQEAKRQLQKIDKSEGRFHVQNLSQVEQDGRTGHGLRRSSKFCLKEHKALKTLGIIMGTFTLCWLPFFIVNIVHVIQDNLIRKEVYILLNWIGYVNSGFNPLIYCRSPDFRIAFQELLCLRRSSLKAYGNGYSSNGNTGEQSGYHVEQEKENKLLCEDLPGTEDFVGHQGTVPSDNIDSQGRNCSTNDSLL
T4 sequence (P25100 whole entry): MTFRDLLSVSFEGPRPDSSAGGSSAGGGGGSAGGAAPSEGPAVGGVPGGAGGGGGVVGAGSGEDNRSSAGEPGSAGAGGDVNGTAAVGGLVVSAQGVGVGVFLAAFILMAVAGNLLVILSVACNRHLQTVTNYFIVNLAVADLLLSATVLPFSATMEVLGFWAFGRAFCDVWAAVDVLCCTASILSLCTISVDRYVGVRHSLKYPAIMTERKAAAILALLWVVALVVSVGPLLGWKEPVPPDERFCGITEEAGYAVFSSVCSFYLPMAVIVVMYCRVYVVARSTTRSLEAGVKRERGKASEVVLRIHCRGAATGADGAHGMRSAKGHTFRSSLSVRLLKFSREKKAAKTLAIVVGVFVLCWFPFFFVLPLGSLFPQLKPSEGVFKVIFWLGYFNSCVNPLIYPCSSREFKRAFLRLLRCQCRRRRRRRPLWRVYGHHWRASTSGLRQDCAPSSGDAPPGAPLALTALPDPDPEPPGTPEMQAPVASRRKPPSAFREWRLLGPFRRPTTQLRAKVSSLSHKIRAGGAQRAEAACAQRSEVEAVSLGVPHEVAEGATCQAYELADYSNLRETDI
T2 sequence (P04150 whole entry): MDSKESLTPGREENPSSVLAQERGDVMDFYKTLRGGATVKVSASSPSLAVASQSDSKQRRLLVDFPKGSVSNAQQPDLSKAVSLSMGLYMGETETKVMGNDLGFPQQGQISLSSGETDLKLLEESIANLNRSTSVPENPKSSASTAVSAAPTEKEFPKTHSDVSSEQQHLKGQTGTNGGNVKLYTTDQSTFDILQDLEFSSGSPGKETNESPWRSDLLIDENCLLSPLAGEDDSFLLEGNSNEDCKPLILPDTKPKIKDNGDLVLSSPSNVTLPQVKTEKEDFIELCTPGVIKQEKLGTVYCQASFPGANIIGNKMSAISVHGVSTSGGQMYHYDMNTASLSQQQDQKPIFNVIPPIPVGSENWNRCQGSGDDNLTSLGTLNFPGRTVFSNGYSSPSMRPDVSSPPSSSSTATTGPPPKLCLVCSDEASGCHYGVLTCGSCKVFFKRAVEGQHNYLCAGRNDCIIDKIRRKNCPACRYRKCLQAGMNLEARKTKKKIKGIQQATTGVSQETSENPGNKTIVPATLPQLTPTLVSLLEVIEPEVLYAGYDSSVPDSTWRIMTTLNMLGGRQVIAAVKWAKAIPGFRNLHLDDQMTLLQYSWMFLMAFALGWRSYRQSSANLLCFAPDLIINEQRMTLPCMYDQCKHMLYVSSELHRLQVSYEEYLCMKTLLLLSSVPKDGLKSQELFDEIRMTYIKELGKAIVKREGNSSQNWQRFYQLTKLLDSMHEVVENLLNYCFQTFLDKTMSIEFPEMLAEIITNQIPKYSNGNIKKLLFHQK
T6 sequence (P13504 20-576): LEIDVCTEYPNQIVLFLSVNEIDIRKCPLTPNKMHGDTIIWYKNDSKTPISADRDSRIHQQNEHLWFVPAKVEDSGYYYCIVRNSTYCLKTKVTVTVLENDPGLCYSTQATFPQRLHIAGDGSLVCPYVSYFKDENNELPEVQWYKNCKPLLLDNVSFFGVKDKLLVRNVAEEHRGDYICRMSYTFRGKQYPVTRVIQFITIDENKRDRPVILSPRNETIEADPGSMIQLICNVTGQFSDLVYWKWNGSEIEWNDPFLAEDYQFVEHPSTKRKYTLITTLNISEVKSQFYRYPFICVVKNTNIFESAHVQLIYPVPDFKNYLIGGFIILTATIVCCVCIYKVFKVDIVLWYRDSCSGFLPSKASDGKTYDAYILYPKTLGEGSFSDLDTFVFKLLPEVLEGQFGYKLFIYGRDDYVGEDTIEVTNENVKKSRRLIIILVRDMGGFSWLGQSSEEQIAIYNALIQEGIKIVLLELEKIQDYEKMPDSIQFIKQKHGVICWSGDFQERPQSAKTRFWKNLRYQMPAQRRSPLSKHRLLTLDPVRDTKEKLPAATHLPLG

As to `Cc1cc(NC(=O)Nc2ccc(F)c(F)c2)n(-c2ccccc2)n1` [VU0456810, 1-(3,4-difluorophenyl)-3-(3-methyl-1-phenyl-1H-pyrazol-5-yl)urea], in data set [1], the appearance of animals entry is “appeared normal and not under obvious distress”. For the same molecule, the inhibition at 10 µM in data set [2] is -5%; in data set [3] it was 2%; in data set [4], 3%; in data set [5], -3%; in data set [8] it was 2%. Moreover, the “time to 90% of maximal current amplitude after application” value in data set [6] (10 μM, local superfusion) is on record as “approximately 2 seconds”. In data set [6] (after application was terminated), the washout time result is listed as “nearly a minute”. In addition, in data set [6] (cell line GIRK1-2, average ± SEM), the EC50 stood at 0.584 ± 0.175 µM. The “% Inhibition” value in data set [7] was 3%.

One may read the inhibition as the drop in the measured response relative to a control, in per cent. The EC50 is the concentration that produces a half-maximal response. By % Inhibition is commonly meant the relative decrease from the control value, in per cent. Low values mean a response near the control, high ones a response far below the control.
